Experimental data reported in the NIST ThermoML archive (doi:10.1016/j.jct.2017.03.006).
± gives the expanded uncertainty stated by the source.

Test: xn = mol fraction of the nth substance listed
Settings: Liquid; for mass density: Vibrating tube method; for viscosity: Concentric cylinders viscometry

Cc1ccc(C)c(C)c1 [1,2,4-trimethylbenzene] + CCC(C)O
Settings	mass density [kg/m3]	viscosity [mPa·s]
273.15 K, 60000 kPa, x2 = 0.1	917.1 ± 0.7	–
273.15 K, 60000 kPa, x2 = 0.1989	911.9 ± 0.7	–
273.15 K, 60000 kPa, x2 = 0.3011	906.2 ± 0.8	–
273.15 K, 60000 kPa, x2 = 0.4002	900.7 ± 0.8	–
273.15 K, 60000 kPa, x2 = 0.5001	894.6 ± 0.8	–
273.15 K, 60000 kPa, x2 = 0.5997	888.3 ± 0.8	–
273.15 K, 60000 kPa, x2 = 0.6999	881.3 ± 0.8	–
273.15 K, 60000 kPa, x2 = 0.7999	873.8 ± 0.8	–
273.15 K, 60000 kPa, x2 = 0.9	865.5 ± 0.8	–
273.15 K, 70000 kPa, x2 = 0	926.2 ± 0.7	–
273.15 K, 70000 kPa, x2 = 0.1	921.5 ± 0.8	–
273.15 K, 70000 kPa, x2 = 0.1989	916.2 ± 0.8	–
273.15 K, 70000 kPa, x2 = 0.3011	910.7 ± 0.8	–
273.15 K, 70000 kPa, x2 = 0.4002	905.2 ± 0.8	–
273.15 K, 70000 kPa, x2 = 0.5001	899.2 ± 0.8	–
273.15 K, 70000 kPa, x2 = 0.5997	892.8 ± 0.8	–
273.15 K, 70000 kPa, x2 = 0.6999	886 ± 0.8	–
273.15 K, 70000 kPa, x2 = 0.7999	878.4 ± 0.8	–
273.15 K, 70000 kPa, x2 = 0.9	870.2 ± 0.8	–
273.15 K, 80000 kPa, x2 = 0	930.3 ± 0.8	–
273.15 K, 80000 kPa, x2 = 0.1	925.7 ± 0.8	–
273.15 K, 80000 kPa, x2 = 0.1989	920.6 ± 0.8	–
273.15 K, 80000 kPa, x2 = 0.3011	915 ± 0.8	–
273.15 K, 80000 kPa, x2 = 0.4002	909.6 ± 0.8	–
273.15 K, 80000 kPa, x2 = 0.5001	903.5 ± 0.8	–
273.15 K, 80000 kPa, x2 = 0.5997	897.2 ± 0.8	–
273.15 K, 80000 kPa, x2 = 0.6999	890.3 ± 0.8	–
273.15 K, 80000 kPa, x2 = 0.7999	882.8 ± 0.8	–
273.15 K, 80000 kPa, x2 = 0.9	874.6 ± 0.8	–
273.15 K, 90000 kPa, x2 = 0	934.2 ± 0.8	–
273.15 K, 90000 kPa, x2 = 0.1	929.8 ± 0.8	–
273.15 K, 90000 kPa, x2 = 0.1989	924.7 ± 0.8	–
273.15 K, 90000 kPa, x2 = 0.3011	919.1 ± 0.8	–
273.15 K, 90000 kPa, x2 = 0.4002	913.7 ± 0.8	–
273.15 K, 90000 kPa, x2 = 0.5001	907.7 ± 0.8	–
273.15 K, 90000 kPa, x2 = 0.5997	901.4 ± 0.8	–
273.15 K, 90000 kPa, x2 = 0.6999	894.6 ± 0.8	–
273.15 K, 90000 kPa, x2 = 0.7999	887.1 ± 0.8	–
273.15 K, 90000 kPa, x2 = 0.9	878.9 ± 0.8	–
273.15 K, 100000 kPa, x2 = 0	938 ± 0.8	–
273.15 K, 100000 kPa, x2 = 0.1	933.7 ± 0.8	–
273.15 K, 100000 kPa, x2 = 0.1989	928.6 ± 0.8	–
273.15 K, 100000 kPa, x2 = 0.3011	923.1 ± 0.8	–
273.15 K, 100000 kPa, x2 = 0.4002	917.7 ± 0.8	–
273.15 K, 100000 kPa, x2 = 0.5001	911.7 ± 0.8	–
273.15 K, 100000 kPa, x2 = 0.5997	905.5 ± 0.8	–
273.15 K, 100000 kPa, x2 = 0.6999	898.7 ± 0.8	–
273.15 K, 100000 kPa, x2 = 0.7999	891.2 ± 0.8	–
273.15 K, 100000 kPa, x2 = 0.9	883 ± 0.9	–
273.15 K, 110000 kPa, x2 = 0	941.7 ± 0.8	–
273.15 K, 110000 kPa, x2 = 0.1	937.6 ± 0.8	–
273.15 K, 110000 kPa, x2 = 0.1989	932.5 ± 0.8	–
273.15 K, 110000 kPa, x2 = 0.3011	927 ± 0.8	–
273.15 K, 110000 kPa, x2 = 0.4002	921.6 ± 0.8	–
273.15 K, 110000 kPa, x2 = 0.5001	915.7 ± 0.8	–
273.15 K, 110000 kPa, x2 = 0.5997	909.4 ± 0.8	–
273.15 K, 110000 kPa, x2 = 0.6999	902.5 ± 0.8	–
273.15 K, 110000 kPa, x2 = 0.7999	895.1 ± 0.9	–
273.15 K, 110000 kPa, x2 = 0.9	887 ± 0.9	–
273.15 K, 120000 kPa, x2 = 0	945.2 ± 0.8	–
273.15 K, 120000 kPa, x2 = 0.1	941.3 ± 0.8	–
273.15 K, 120000 kPa, x2 = 0.1989	936.2 ± 0.8	–
273.15 K, 120000 kPa, x2 = 0.3011	930.8 ± 0.8	–
273.15 K, 120000 kPa, x2 = 0.4002	925.3 ± 0.8	–
273.15 K, 120000 kPa, x2 = 0.5001	919.5 ± 0.8	–
273.15 K, 120000 kPa, x2 = 0.5997	913.2 ± 0.8	–
273.15 K, 120000 kPa, x2 = 0.6999	906.4 ± 0.8	–
273.15 K, 120000 kPa, x2 = 0.7999	899 ± 0.9	–
273.15 K, 120000 kPa, x2 = 0.9	890.8 ± 0.9	–
273.15 K, 130000 kPa, x2 = 0	948.6 ± 0.8	–
273.15 K, 130000 kPa, x2 = 0.1	944.9 ± 0.8	–
273.15 K, 130000 kPa, x2 = 0.1989	939.9 ± 0.8	–
273.15 K, 130000 kPa, x2 = 0.3011	934.4 ± 0.8	–
273.15 K, 130000 kPa, x2 = 0.4002	929 ± 0.8	–
273.15 K, 130000 kPa, x2 = 0.5001	923.2 ± 0.8	–
273.15 K, 130000 kPa, x2 = 0.5997	916.9 ± 0.8	–
273.15 K, 130000 kPa, x2 = 0.6999	910.1 ± 0.9	–
273.15 K, 130000 kPa, x2 = 0.7999	902.7 ± 0.9	–
273.15 K, 130000 kPa, x2 = 0.9	894.6 ± 0.9	–
273.15 K, 140000 kPa, x2 = 0	952 ± 0.8	–
273.15 K, 140000 kPa, x2 = 0.1	948.2 ± 0.8	–
273.15 K, 140000 kPa, x2 = 0.1989	943.3 ± 0.8	–
273.15 K, 140000 kPa, x2 = 0.3011	937.6 ± 0.8	–
273.15 K, 140000 kPa, x2 = 0.4002	932.3 ± 0.8	–
273.15 K, 140000 kPa, x2 = 0.5001	926.7 ± 0.8	–
273.15 K, 140000 kPa, x2 = 0.5997	920.4 ± 0.8	–
273.15 K, 140000 kPa, x2 = 0.6999	913.4 ± 0.9	–
273.15 K, 140000 kPa, x2 = 0.7999	906 ± 0.9	–
273.15 K, 140000 kPa, x2 = 0.9	897.9 ± 0.9	–
293.15 K, 100 kPa, x2 = 0	875.1 ± 0.7	0.888 ± 0.019
293.15 K, 100 kPa, x2 = 0.1	869.3 ± 0.7	–
293.15 K, 100 kPa, x2 = 0.1001	–	0.885 ± 0.019
293.15 K, 100 kPa, x2 = 0.2261	–	0.909 ± 0.019
293.15 K, 100 kPa, x2 = 0.3	–	0.935 ± 0.02
293.15 K, 100 kPa, x2 = 0.3966	–	1.013 ± 0.021
293.15 K, 100 kPa, x2 = 0.5298	–	1.121 ± 0.024
293.15 K, 100 kPa, x2 = 0.6001	–	1.25 ± 0.026
293.15 K, 100 kPa, x2 = 0.7001	–	1.48 ± 0.031
293.15 K, 100 kPa, x2 = 0.7997	–	1.85 ± 0.038
293.15 K, 100 kPa, x2 = 0.9001	–	2.47 ± 0.051
